Measured values published in patent US12285460B2, “Pharmaceutical compositions” (RHYTHM PHARMACEUTICALS, INC., priority 2013, dated 2025).
Bridge positions count the residues as written; N and C are the ends. Square brackets hold non-standard residues; d marks the D form. Peptide text beside a SMILES is read from it. dPhe(4-F) = N[C@H](Cc1ccc(F)cc1)C(=O)O; Pen = CC(C)(S)[C@H](N)C(=O)O; hCys = N[C@@H](CCS)C(=O)O

What was measured:
MC3R = biological target: T1, MC3R (Homo sapiens, UniProt P41968); experiment: cAMP assay (EC50), MC3R; format: cell-based; conditions: EC50(MC3R)/EC50(MC4R)
T1 construct: host or cells: CHO-K1 (ECL assay)
T1 sequence (P41968 whole entry): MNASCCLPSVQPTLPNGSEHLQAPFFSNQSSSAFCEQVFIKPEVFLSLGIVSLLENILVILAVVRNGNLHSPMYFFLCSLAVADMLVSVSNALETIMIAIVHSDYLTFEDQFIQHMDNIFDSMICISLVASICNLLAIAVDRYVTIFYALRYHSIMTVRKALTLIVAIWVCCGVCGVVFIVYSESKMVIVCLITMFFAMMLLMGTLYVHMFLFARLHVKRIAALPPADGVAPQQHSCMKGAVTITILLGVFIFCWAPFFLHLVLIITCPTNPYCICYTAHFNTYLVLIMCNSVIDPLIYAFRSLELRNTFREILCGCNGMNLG
Procedure: (§1) Stimulation of intracellular cyclic AMP (cAMP) levels by the peptides is determined in a dose dependent manner by an electrochemiluminescence (ECL) assay (Meso Scale Discovery, Gaithersburg, MD, USA; referred to hereinafter as “MSD”). Briefly, the CHO-K1 cells stably expressing the hMC receptor subtypes are suspended in RMPI 1640® assay buffer (RMPI 1640 buffer contains 0.5 mM IBMX, and 0.2% protein cocktail (MSD blocker A)). About 7,000 cells/well of the transgenic CHO-K1 cells stably expressing hMC receptor subtypes 1, 3, 4 or 5 are dispensed in 384-well Multi-Array plates (MSD) containing integrated carbon electrodes and coated with anti-cAMP antibody. Increasing concentrations of the test compounds are added and the cells are incubated for approximately 40 minutes at 37° C. A cell lysis buffer (HEPES-buffered saline solution with MgCl2 and Triton X-100® at pH 7.3) containing 0.2% protein cocktail and 2.5 nM TAG™ ruthenium-labeled cAMP (MSD) is added and the cells are incubated for approximately 90 minutes at room temperature. At the end of the second incubation period, the read buffer (Tris-buffered solution containing an ECL co-reactant and Triton X-100 at pH 7.8) is added and the cAMP levels in the cell lysates are immediately determined by ECL detection with a Sector Imager 6000 Reader® (MSD). Data are analyzed using a computer-assisted non-linear regression analysis (XL fit; IDBS) and reported as either an EC50 value.
(§2) Human MC4-R transfected cells are grown to confluence in 96 well plates (plating approximately 250,000 cells per well). The cells are treated in triplicate sets with 0.2 mM isobutylmethylxanthine (IBMX) and graded concentrations of the peptide or alternatively the peptide in the presence of 20 nM NDP-MSH. Cells similarly treated but with only 20 nM NDP-MSH serve as positive controls in a volume of 200 μL. A buffer blank serving as a negative control is also included. After incubation of one hour at 37° C., the cells are lysed by the addition of 50 μL of a cell lysis buffer. Total cAMP accumulated in 250 μL of this incubation medium is quantitated using a commercially available low pH cAMP assay kit (Amersham BioSciences) as per procedure specified by the kit supplier. […] The data for agonist is plotted and curve fitted to determine the EC50 value. A peptide showing accumulation in the same range as the negative control (buffer blank in the absence of alpha-MSH) is ineffective at the test concentration. A peptide showing attenuated accumulation is considered to be an antagonist if there is inhibition in cAMP when alpha-MSH is also present in the assay. Similar assay can be performed with hMC-1R, hMC-3R, and hMC-5R cells.
(§3) A chemiluminescence readout system that uses an enzyme fragment complementation (EFC) system with β-galactosidase (β-Gal) as the functional reporter system was used. This assay system for various melanocortin receptor systems is commercially available (cAMP Hunter GPCR assay system, Discoverx Corp, Fremont, CA). This assay utilizes the β-Gal enzyme that is split into two complementary portions; EA for Enzyme Acceptor and ED for Enzyme Donor. In the assay, the ED portion fused to cAMP is made to compete with cAMP generated by cells for binding to a cAMP-specific antibody. The EA is then added to form active β-Gal with any unbound ED-cAMP.
(§4) Briefly, 10000 cells per well are plated overnight and each well (cells incubated with 10 μl assay buffer) is then incubated with 4× serial concentration of the test compound in the cell assay buffer (5 μL) and cAMP antibody reagent (5 μL) for 30 min at 37° C. The cell lysis buffer (20 μL) containing ED-cAMP coupled enzyme fragment and the reporter substrate (Emerald II-Galacton Star, 5:1) is then added and incubated for 60 min at room temperature. Next, 20 μL of EA β-Gal fragment reagent is added.

MC5R = biological target: T2, MC5R (Homo sapiens, UniProt P33032); experiment: cAMP assay (EC50), MC5R; format: cell-based; conditions: for Ratios of EC50 values MC5/4: EC50(MC5R)/EC50(MC4R)
T2 construct: host or cells: CHO-K1 (ECL assay)
T2 sequence (P33032 whole entry): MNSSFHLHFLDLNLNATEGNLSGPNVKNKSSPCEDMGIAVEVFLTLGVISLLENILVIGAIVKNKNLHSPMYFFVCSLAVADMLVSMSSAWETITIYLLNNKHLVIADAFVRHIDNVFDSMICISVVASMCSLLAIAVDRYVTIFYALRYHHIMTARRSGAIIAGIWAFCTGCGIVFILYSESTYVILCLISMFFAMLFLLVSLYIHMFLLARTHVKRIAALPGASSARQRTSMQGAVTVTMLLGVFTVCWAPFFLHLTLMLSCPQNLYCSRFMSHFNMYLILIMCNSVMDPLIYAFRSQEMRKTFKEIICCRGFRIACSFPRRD
Procedure: Stimulation of intracellular cyclic AMP (cAMP) levels by the peptides is determined in a dose dependent manner by an electrochemiluminescence (ECL) assay (Meso Scale Discovery, Gaithersburg, MD, USA; referred to hereinafter as “MSD”). Briefly, the CHO-K1 cells stably expressing the hMC receptor subtypes are suspended in RMPI 1640® assay buffer (RMPI 1640 buffer contains 0.5 mM IBMX, and 0.2% protein cocktail (MSD blocker A)). About 7,000 cells/well of the transgenic CHO-K1 cells stably expressing hMC receptor subtypes 1, 3, 4 or 5 are dispensed in 384-well Multi-Array plates (MSD) containing integrated carbon electrodes and coated with anti-cAMP antibody. Increasing concentrations of the test compounds are added and the cells are incubated for approximately 40 minutes at 37° C. A cell lysis buffer (HEPES-buffered saline solution with MgCl2 and Triton X-100® at pH 7.3) containing 0.2% protein cocktail and 2.5 nM TAG™ ruthenium-labeled cAMP (MSD) is added and the cells are incubated for approximately 90 minutes at room temperature. At the end of the second incubation period, the read buffer (Tris-buffered solution containing an ECL co-reactant and Triton X-100 at pH 7.8) is added and the cAMP levels in the cell lysates are immediately determined by ECL detection with a Sector Imager 6000 Reader® (MSD). Data are analyzed using a computer-assisted non-linear regression analysis (XL fit; IDBS) and reported as either an EC50 value. […]
as §3, with “ED-cAMP. This active enzyme then converts a chemiluminescent substrate to generate an output signal that is recorded on a standard microplate reader.” for “ED-cAMP.”
as §4

MC1R = biological target: T3, MC1R (Homo sapiens, UniProt Q01726); experiment: cAMP assay (EC50), MC1R; format: cell-based; conditions: EC50(MC1R)/EC50(MC4R)
T3 construct: host or cells: CHO-K1 (ECL assay)
T3 sequence (Q01726 whole entry): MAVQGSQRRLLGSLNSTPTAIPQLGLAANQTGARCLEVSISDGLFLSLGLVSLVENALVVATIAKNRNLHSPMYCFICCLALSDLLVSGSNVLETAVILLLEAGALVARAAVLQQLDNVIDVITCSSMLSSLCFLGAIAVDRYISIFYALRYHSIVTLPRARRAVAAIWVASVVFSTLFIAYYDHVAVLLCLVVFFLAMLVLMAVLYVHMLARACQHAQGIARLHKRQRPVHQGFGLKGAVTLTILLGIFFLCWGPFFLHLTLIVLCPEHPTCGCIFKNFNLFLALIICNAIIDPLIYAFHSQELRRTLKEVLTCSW
Procedure: as §1, §2, §3, §4

[1] = Pharmacokinetics of formulations after single subcutaneous bolus in Cynomolgus monkeys; format: in vivo; conditions: cynomolgus monkey, plasma, sc, 0.5 mg/kg body weight
Procedure: A group of Cynomolgus monkeys (average body weight range of 3 to 7 kg) were randomized into a group of 6 for each formulation described above and for Formulation 3A. Each monkey in the cohort was subcutaneously administered in the scapular area with a single bolus dose of a formulation calculated at 0.5 mg/kg body weight. Blood samples were taken at various time points staring at 30 minutes post dosing to 36 or 48 hours. The plasma was harvested and peptide drug concentration assays using LC-MS/MS technique. The pharmacokinetic data is presented in Table 3 below, and the pharmacokinetic profile is set forth graphically in FIG. 1, FIG. 2, and FIG. 3.

Row | Ratios of EC50 values MC3/4 (MC3R) | Ratios of EC50 values MC5/4 (MC5R) | Ratios of EC50 values MC1/4 (MC1R) | SMILES | Cmax [1] [ng/mL] | Tmax [1] [min] | EC50 (MC5R) [µM]
1 | 3.8 | 161 | 15 | CC(=O)N[C@@H](CCCNC(=N)N)C(=O)N[C@H]1CCSSC[C@@H](C(N)=O)NC(=O)[C@H](Cc2c[nH]c3ccccc23)NC(=O)[C@H](CCCNC(=N)N)NC(=O)[C@@H](Cc2ccccc2)NC(=O)[C@H](C)NC1=O [Compound 15, Ac-Arg-cyclo[hCys-Ala-D-Phe-Arg-Trp-Cys]-NH2] (Ac-R[hCys]A[dF]RWC-NH2; disulfide 2-7) |  |  | 
2 | 420 | >1338 | 120 | CC(=O)N[C@@H](CCCNC(=N)N)C(=O)N[C@H]1CCSSC[C@@H](C(N)=O)NC(=O)[C@H](Cc2c[nH]c3ccccc23)NC(=O)[C@H](CCCNC(=N)N)NC(=O)[C@@H](Cc2ccccc2)NC(=O)[C@@H](C)NC1=O [Compound 16, Ac-Arg-cyclo[hCys-D-Ala-D-Phe-Arg-Trp-Cys]-NH2] (Ac-R[hCys][dA][dF]RWC-NH2; disulfide 2-7) |  |  | 
3 | 17 | 159 | 15 | CC(=O)N[C@@H](CCCNC(=N)N)C(=O)N[C@H]1CCSSC(C)(C)[C@@H](C(N)=O)NC(=O)[C@H](Cc2c[nH]c3ccccc23)NC(=O)[C@H](CCCNC(=N)N)NC(=O)[C@@H](Cc2ccccc2)NC(=O)[C@@H](C)NC1=O [Compound 17, Ac-Arg-cyclo[hCys-D-Ala-D-Phe-Arg-Trp-Pen]-NH2] (Ac-R[hCys][dA][dF]RW[Pen]-NH2; disulfide 2-7) |  |  | 

More lines, now with the values behind:

Row | SMILES | Ratios of EC50 values MC3/4 (MC3R) | Ratios of EC50 values MC5/4 (MC5R) | Ratios of EC50 values MC1/4 (MC1R) | Cmax [1] [ng/mL] | Tmax [1] [min] | EC50 (MC5R) [µM]
4 | CC(=O)N[C@@H](CCCNC(=N)N)C(=O)N[C@H]1CSSC[C@@H](C(N)=O)NC(=O)[C@H](Cc2c[nH]c3ccccc23)NC(=O)[C@H](CCCNC(=N)N)NC(=O)[C@@H](Cc2ccc(F)cc2)NC(=O)[C@@H]2CCCN2C(=O)[C@@H](C)NC1=O [Compound 14, Ac-Arg-cyclo[Cys-D-Ala-Pro-D-Phe(p-F)-Arg-Trp-Cys]-NH2] (Ac-RC[dA]P[dPhe(4-F)]RWC-NH2; disulfide 2-8) | >400 | 12 | 7 |  |  | 
5 | CC(=O)N[C@@H](CCC(=O)O)C(=O)N[C@H]1CSSC[C@@H](C(N)=O)NC(=O)[C@H](Cc2c[nH]c3ccccc23)NC(=O)[C@H](CCCNC(=N)N)NC(=O)[C@@H](Cc2ccccc2)NC(=O)[C@H](Cc2c[nH]cn2)NC(=O)[C@H](C)NC1=O [Compound 22, Ac-Glu-cyclo[Cys-Ala-His-D-Phe-Arg-Trp-Cys]-NH2] (Ac-ECAH[dF]RWC-NH2; disulfide 2-8) | >20 | >2563 | >3 |  |  | 
6 | CC(=O)N[C@@H](CCCNC(=N)N)C(=O)N[C@H]1CSSC[C@@H](C(N)=O)NC(=O)[C@H](Cc2c[nH]c3ccccc23)NC(=O)[C@H](CCCNC(=N)N)NC(=O)[C@@H](Cc2ccccc2)NC(=O)[C@H](Cc2c[nH]cn2)NC(=O)[C@@H](C)NC1=O [Peptide 1] |  |  |  | 1100 | 30 | 1.6
